Test results as given in paper PMC11822212, “High-throughput screening identifies Aurora kinase B as a critical therapeutic target for Merkel cell carcinoma” (Nature Communications, 2025).
Counter-ions that a name gives are not always drawn. Like-named read-outs stand apart in the source and are kept apart here.

Experiments:
[1] = test system: VN-MCC cell lines (MCC13, MCC26, UISO); assay: qHTS cell viability, VN-MCC cell lines as a group (mean AUC, VN.MCC.avg); assay type: cell-based, human
UISO cells (VN-MCC) = assay: qHTS cell viability (CellTiter-Glo, 72 h; primary and follow-up small molecule screen); assay type: cell-based, human
[2] = test system: VP-MCC cell lines (WAGA, MKL-1, MKL-2); assay: qHTS cell viability, VP-MCC cell lines as a group (mean AUC, VP.MCC.avg); assay type: cell-based, human
HEK293T cells = assay: qHTS cell viability (CellTiter-Glo, 72 h; primary screen), control cell line; assay type: cell-based, human
[3] = test system: six MCC cell lines and four control cell lines; assay: qHTS cell viability, all 10 cell lines screened; assay type: cell-based
NIH-3T3 cells = assay: qHTS cell viability (CellTiter-Glo, 72 h; primary screen), control cell line; assay type: cell-based, mouse
[4] = test system: MCC cell lines (WAGA, MKL-1, MKL-2, MCC13, MCC26, UISO); assay: qHTS cell viability, all six MCC cell lines as a group (mean AUC, MCC.avg); assay type: cell-based, human
MKL-1 cells (VP-MCC) = assay: qHTS cell viability (CellTiter-Glo, 72 h; primary and follow-up small molecule screen); assay type: cell-based, human
WAGA cells (VP-MCC) = assay: as above; assay type: cell-based, human
CRL-7250 cells = assay: qHTS cell viability (CellTiter-Glo, 72 h; primary screen), control cell line; assay type: cell-based
[5] = test system: control cell lines (HACAT, HEK293T, CRL-7250, NIH-3T3); assay: qHTS cell viability, control cell lines as a group (mean AUC, Control.avg); assay type: cell-based
MCC13 cells (VN-MCC) = assay: qHTS cell viability (CellTiter-Glo, 72 h; primary and follow-up small molecule screen); assay type: cell-based, human
HACAT cells = assay: qHTS cell viability (CellTiter-Glo, 72 h; primary screen), control cell line; assay type: cell-based, human
MKL-2 cells (VP-MCC) = assay: qHTS cell viability (CellTiter-Glo, 72 h; primary and follow-up small molecule screen); assay type: cell-based, human
MCC26 cells (VN-MCC) = assay: as above; assay type: cell-based, human
[6] = MIPE library, 11-point DRC, sheet S2E
[7] = MIPE library, 11-point DRC, control cell line, sheet S2E

`C=CCC1([C@H](C)CCC)C(=O)NC(=O)NC1=O` [S-(-)-Secobarbital] gave a Control-VN-MCC [1] of 48.3879, a VN-MCC_Avg_AUC [1] of 437.495 and a UISO_AUC (UISO cells (VN-MCC)) of 438.072. It also gave a Control-VP-MCC [2] of 50.9524, a VP-MCC_Avg_AUC [2] of 434.931 and an HEK293T_AUC (HEK293T cells) of 485.529. For the same compound, the Control-MCC [3] was 49.6701, the NIH3T3_AUC (NIH-3T3 cells) was 473.981 and the MCC_Avg_AUC [4] was 436.213. For the same compound, the MKL1_AUC (MKL-1 cells (VP-MCC)) was 441.594, the WAGA_AUC (WAGA cells (VP-MCC)) was 434.137 and the CRL7250_AUC (CRL-7250 cells) was 492.207. It also gave a Control_Avg_AUC [5] of 485.883, an MCC13_AUC (MCC13 cells (VN-MCC)) of 460.136 and an HACAT_AUC (HACAT cells) of 491.817. The MKL2_AUC (MKL-2 cells (VP-MCC)) was 429.062 and the MCC26_AUC (MCC26 cells (VN-MCC)) was 414.278.
`Cc1c(C)n(Cc2ccc(-c3ccccc3C(=O)O)cc2)c2ccc(C(=O)N[C@@H](C)c3ccc([N+](=O)[O-])cc3)cc12` [SR1664] showed a Control-VN-MCC ([1]; MIPE library, Control AUC minus VN-MCC AUC (therapeutic window), sheet S2E) of 4.574, a VN-MCC_Avg_AUC ([1]; MIPE library, mean AUC of VN-MCC cell lines, sheet S2E) of 472.695 and a UISO_AUC (UISO cells (VN-MCC); [6]) of 472.261. For the same compound, the UISO_AUC (UISO cells (VN-MCC); area under the dose-response curve, UISO cells, AUC<450 = reduced viability) was 472.261, the Control-VP-MCC ([2]; MIPE library, Control AUC minus VP-MCC AUC (therapeutic window), sheet S2E) was 161.027 and the VP-MCC_Avg_AUC ([2]; MIPE library, mean AUC of VP-MCC cell lines, sheet S2E) was 316.242. For the same compound, the HEK293T_AUC (HEK293T cells; [7]) was 470.145, the HEK293T_AUC (HEK293T cells; area under the dose-response curve, HEK293T control cells, AUC<450 = reduced viability) was 470.145 and the Control-MCC ([3]; MIPE library, Control AUC minus MCC AUC (therapeutic window), sheet S2E) was 82.8007. It also gave an NIH3T3_AUC (NIH-3T3 cells; [7]) of 484.086, an NIH3T3_AUC (NIH-3T3 cells; area under the dose-response curve, NIH3T3 control cells, AUC<450 = reduced viability) of 484.086 and an MCC_Avg_AUC ([4]; MIPE library, mean AUC of six MCC cell lines, sheet S2E) of 394.468. The MKL1_AUC (MKL-1 cells (VP-MCC); [6]) was 300.491, the MKL1_AUC (MKL-1 cells (VP-MCC); area under the dose-response curve, MKL-1 cells, AUC<450 = reduced viability) was 300.491 and the WAGA_AUC (WAGA cells (VP-MCC); [6]) was 329.214. For the same compound, the WAGA_AUC (WAGA cells (VP-MCC); area under the dose-response curve, WAGA cells, AUC<450 = reduced viability) was 329.214, the CRL7250_AUC (CRL-7250 cells; [7]) was 475.771 and the CRL7250_AUC (CRL-7250 cells; area under the dose-response curve, CRL7250 control cells, AUC<450 = reduced viability) was 475.77. The Control_Avg_AUC ([5]; MIPE library, mean AUC of control cell lines, sheet S2E) was 477.269, the MCC13_AUC (MCC13 cells (VN-MCC); [6]) was 475.759 and the MCC13_AUC (MCC13 cells (VN-MCC); area under the dose-response curve, MCC13 cells, AUC<450 = reduced viability) was 475.759. For the same compound, the HACAT_AUC (HACAT cells; [7]) was 479.075, the HACAT_AUC (HACAT cells; area under the dose-response curve, HACAT control cells, AUC<450 = reduced viability) was 479.075 and the MKL2_AUC (MKL-2 cells (VP-MCC); [6]) was 319.019. The MKL2_AUC (MKL-2 cells (VP-MCC); area under the dose-response curve, MKL-2 cells, AUC<450 = reduced viability) was 319.019, the MCC26_AUC (MCC26 cells (VN-MCC); [6]) was 470.066 and the MCC26_AUC (MCC26 cells (VN-MCC); area under the dose-response curve, MCC26 cells, AUC<450 = reduced viability) was 470.066.
Compound `O=C(N/N=C/c1ccccc1O)c1ccncc1` [Salinazid] has a Control-VN-MCC ([1]; Control AUC minus VN-MCC AUC) of 51.9858, a VN-MCC_Avg_AUC ([1]; NPC library, mean AUC of VN-MCC cell lines) of 408.107 and a Control-VN-MCC ([1]; NPC library, therapeutic window: Control avg AUC minus VN-MCC avg AUC) of 51.9858. The UISO_AUC (UISO cells (VN-MCC); NPC library, qHTS dose-response AUC, UISO) was 339.128, the Control-VP-MCC ([2]; Control AUC minus VP-MCC AUC) was 91.9801 and the VP-MCC_Avg_AUC ([2]; NPC library, mean AUC of VP-MCC cell lines) was 368.113. The Control-VP-MCC ([2]; NPC library, therapeutic window: Control avg AUC minus VP-MCC avg AUC) was 91.9801, the HEK293T_AUC (HEK293T cells; NPC library, qHTS dose-response AUC, HEK293T control) was 458.621 and the Control-MCC ([3]; NPC library, therapeutic window: Control avg AUC minus MCC avg AUC) was 71.983. For the same compound, the NIH3T3_AUC (NIH-3T3 cells; NPC library, qHTS dose-response AUC, NIH3T3 control) was 449.726, the MCC_Avg_AUC ([4]; NPC library, mean AUC of all 6 MCC cell lines) was 388.11 and the MCC_Avg_AUC ([4]; NPC library, mean AUC of six MCC cell lines) was 388.11. For the same compound, the MKL1_AUC (MKL-1 cells (VP-MCC); NPC library, qHTS dose-response AUC, MKL1) was 355.467, the WAGA_AUC (WAGA cells (VP-MCC); NPC library, qHTS dose-response AUC, WAGA) was 408.656 and the CRL7250_AUC (CRL-7250 cells; NPC library, qHTS dose-response AUC, CRL7250 control) was 476.052. For the same compound, the Control_Avg_AUC ([5]; NPC library, mean AUC of control cell lines) was 460.093, the MCC13_AUC (MCC13 cells (VN-MCC); NPC library, qHTS dose-response AUC, MCC13) was 439.405 and the HACAT_AUC (HACAT cells; NPC library, qHTS dose-response AUC, HACAT control) was 455.974. The MKL2_AUC (MKL-2 cells (VP-MCC); NPC library, qHTS dose-response AUC, MKL2) was 340.216 and the MCC26_AUC (MCC26 cells (VN-MCC); NPC library, qHTS dose-response AUC, MCC26) was 445.789.
`C#CCN(C)[C@H](C)Cc1ccccc1` [Selegiline hydrochloride] was tested, and the Control-VN-MCC [1] was 1.446, the VN-MCC_Avg_AUC [1] was 458.075 and the UISO_AUC (UISO cells (VN-MCC)) was 478.192. The Control-VP-MCC [2] was 51.4197, the VP-MCC_Avg_AUC [2] was 408.101 and the HEK293T_AUC (HEK293T cells) was 439.797. It also gave a Control-MCC [3] of 26.4329, an NIH3T3_AUC (NIH-3T3 cells) of 471.047 and an MCC_Avg_AUC [4] of 433.088. For the same compound, the MKL1_AUC (MKL-1 cells (VP-MCC)) was 401.694, the WAGA_AUC (WAGA cells (VP-MCC)) was 431.581 and the CRL7250_AUC (CRL-7250 cells) was 455.418. For the same compound, the Control_Avg_AUC [5] was 459.521, the MCC13_AUC (MCC13 cells (VN-MCC)) was 453.711 and the HACAT_AUC (HACAT cells) was 471.82. The MKL2_AUC (MKL-2 cells (VP-MCC)) was 391.028 and the MCC26_AUC (MCC26 cells (VN-MCC)) was 442.321.
